The record followed here is ChEMBL document CHEMBL5241088, “Selective SIRT2 inhibitors as promising anticancer therapeutics: An update from 2016 to 2020” (Eur J Med Chem, 2021).

In one assay the test system is Raji. The assay is described as follows: Cytotoxicity against human Raji cells assessed as cell viability after 72 hrs by CellTiter-Glo assay. The format is functional, cell-based.
Assay [1] in a line: Cytotoxicity against human DLBCL cells assessed as cell viability after 72 hrs by CellTiter-Glo assay. It counts as functional, cell-based.
The target of assay [2] is T1, NAD-dependent protein deacetylase sirtuin-2 (Homo sapiens, UniProt Q8IXJ6).
T1 sequence (Q8IXJ6 whole entry): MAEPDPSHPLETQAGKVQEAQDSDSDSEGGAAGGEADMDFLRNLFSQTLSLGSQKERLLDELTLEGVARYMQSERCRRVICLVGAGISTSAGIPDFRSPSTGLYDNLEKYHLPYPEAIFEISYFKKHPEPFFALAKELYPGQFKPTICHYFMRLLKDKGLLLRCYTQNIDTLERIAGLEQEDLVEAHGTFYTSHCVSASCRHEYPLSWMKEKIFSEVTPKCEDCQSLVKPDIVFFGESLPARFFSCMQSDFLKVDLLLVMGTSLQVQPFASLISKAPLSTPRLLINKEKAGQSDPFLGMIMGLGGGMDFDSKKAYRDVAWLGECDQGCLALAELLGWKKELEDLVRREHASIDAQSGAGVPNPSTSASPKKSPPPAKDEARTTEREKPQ
The assay is described as follows: Inhibition of human SIRT2 using sirtuin substrate incubated for 30 mins by enzymatic fluorescence assay.

In the next assay the test system is HEK-293T. The assay can be described thus: Antiproliferative activity against human HEK293T cells. It counts as functional, cell-based.
Assay [3] addresses T1, NAD-dependent protein deacetylase sirtuin-2. The assay can be described thus: Inhibition of human SIRT2 demyristoylation activity using ETDKac as substrate.
For assay [4], the system named is MCF7. The assay can be described thus: Antiproliferative activity against human MCF7 cells. The format is functional, cell-based.
The test system of assay [5] is MDA-MB-231. The assay is described as follows: Antiproliferative activity against human MDA-MB-231 cells incubated for 72 hrs by MTT assay. It counts as functional.
Assay [6] concerns the target T1, NAD-dependent protein deacetylase sirtuin-2. The assay is described as follows: Inhibition of SIRT2 (unknown origin).
The test system of assay [7] is MCF7. The assay is described as follows: Antiproliferative activity against human MCF7 cells incubated for 72 hrs by MTT assay. It counts as functional.
Assay [8] addresses T1, NAD-dependent protein deacetylase sirtuin-2. The assay can be described thus: Inhibition of recombinant SIRT2 (unknown origin) using (FAM)-labeled fluorescent peptide-RHKK(Ac)LM by electrophoretic mobility shift assay.
The test system of assay [9] is MCF7. The assay can be described thus: Cytotoxicity against human MCF7 cells assessed as cell viability measured after 3 days by Cell Titer Blue assay. Particulars: MCF7, 72 h. It counts as functional, cell-based.
Assay [10] concerns MDA-MB-231. The assay can be described thus: Cytotoxicity against human MDA-MB-231 cells assessed as cell viability measured after 3 days by Cell Titer Blue assay. To be noted: MDA-MB-231, 72 h. It counts as functional, cell-based.
The next assay relates to MDA-MB-468. The assay can be described thus: Cytotoxicity against human MDA-MB-468 cells assessed as cell viability measured after 3 days by Cell Titer Blue assay. The format is functional, cell-based. To be noted: MDA-MB-468, 72 h.
For assay [11], the target named is T1, NAD-dependent protein deacetylase sirtuin-2. The assay can be described thus: Inhibition of human GST-fused SIRT2 expressed in Escherichia coli BL21(DE3).
Assay [12] shares this target. The assay can be described thus: Inhibition of human SIRT2 expressed in Escherichia coli BL21(DE3) using Ac-Arg-His-Lys-[Lys-(Ac)]-AMC substrate.
For assay [13] the target is unchanged. The assay can be described thus: Inhibition of human SIRT2 using Ac-peptide as substrate assessed as fluorescence intensity by microplate reader.
Assay [14] addresses T2, NAD-dependent protein deacetylase sirtuin-2 (Homo sapiens) (UniProt Q8IXJ6).
T2 sequence (whole entry): T1 sequence (Q8IXJ6 whole entry)
The assay is described as follows: Inhibition of human SIRT2 (34 to 356 amino acids) by surface plasmon resonance assay relative to control. To be noted: concentration not given here.

The target of assay [15] is T1, NAD-dependent protein deacetylase sirtuin-2. The assay can be described thus: Inhibition of human SIRT2 deacetylase activity using QPKKac as substrate.

With `CNC(=O)C(Cc1c(O)ccc2cc(Br)ccc12)C(=O)c1ccc(Br)cc1` (stereo not drawn), the IC50 turned out to be 9100 nM with Raji and 5700 nM in [1].
Consider `CC(C)=CCc1c(O)cc2oc3cc(O)c(O)c(CC=C(C)C)c3c(=O)c2c1O`, for which the IC50 in assay [2] was found to be 3800 nM.
For the compound `CCCCCCCCCCCCCC(=S)NCCCC[C@H](NS(C)(=O)=O)C(=O)N[C@@H](C)C(=O)N[C@@H](CCCNC(=N)N)C(N)=O`, the IC50 in the assay with HEK-293T worked out at 10 nM; in assay [3], 90 nM; with MCF7 [4], 50 nM.
As to `C[C@H](NC(=O)[C@H](CCCCNC(=S)CNC(=O)c1ccccc1Nc1cccc(OCCc2ccccc2)c1)NC(=O)OCc1ccccc1)C(N)=O`, the GI50 in the assay with MDA-MB-231 [5] and in the assay on MCF7 [7] was 8300 nM in each case. Besides, in assay [6], the IC50 came out at 1560 nM.
Consider `C=CCNC(=S)N/N=C/c1ccc(OC)c(Cn2cc([N+](=O)[O-])cn2)c1`, for which the IC50 in [8] stood at 180 nM.
Take `Cc1[nH]c2c(c1C(=O)N(C)Cc1cccc(-c3ccc(C(F)(F)F)cc3)c1)C(=O)CC(C)(C)C2`: half-maximal inhibition in [6] (IC50) required 980 nM.
`COc1c(O)cc2oc3cc(O)c(CC=C(C)C)c(O)c3c(=O)c2c1CC=C(C)C` [MANGOSTIN]: the IC50 in assay [2] is 9200 nM.
`CCCCCCCCCCCCCC(=S)NCCCCC(NC(=O)OCc1ccccc1)C(=O)Nc1ccccc1` (stereo not drawn): the IC50 with MCF7 [9] amounted to 8400 nM; with MDA-MB-231 [10] it was 34100 nM; in the assay with MDA-MB-468 it was 8600 nM.
`CCC(C)(C)c1ccc(OCC(O)CN2C[C@@H]3C[C@H](C2)c2cccc(=O)n2C3)c(C(C)(C)CC)c1` (stereo partly drawn): in [11], half-maximal inhibition (IC50) required 460 nM.
In the case of `COc1ccc2cc(S(=O)(=O)Cc3ccc(OC(C)=O)cc3)oc2c1`, it took 3810 nM to reach half-maximal inhibition in [12] (IC50).
`O=C(CSc1nnc2c3ccccc3n(Cc3ccccc3)c2n1)Nc1cccc2ccccc12`: the IC50 in assay [13] is 1300 nM.
In the case of `CCOC(=O)c1c(/C=N/OCc2cn(CC(=O)c3ccc(OC)cc3)nn2)c2ccccc2n1C`, the inhibition in assay [14] turned out to be 73.1%.
In turn, `COc1cc2oc3cc(O)c(OC)c(CC=C(C)C)c3c(=O)c2c(O)c1CC=C(C)C` showed an IC50 in assay [2] of 18900 nM.
Take `CCCCCCCCCCCCCC(=S)NCCCC[C@H](NS(C)(=O)=O)C(=O)N[C@H](C)C(=O)N[C@@H](CCCNC(=N)N)C(N)=O`: the values for the half-maximal inhibitory concentration (IC50) (in the assay on HEK-293T; in assay [15]; in the assay on MCF7 [4]) were 100 nM, 70 nM and 500 nM, respectively.
